In the test the test system is BDF1 mice, M5076 sarcoma ip, median survival T/C. Description: NCI In Vivo Anticancer Drug Screen. Data for tumor model Sarcoma M5076 (intraperitoneal) in B6D2F1 (BDF1) mice. The note with it: endpoint: median survival time, higher = longer survival. The protocol: The antitumor activity of compounds was measured in mice bearing transplantable tumors. Survival or tumor size were measured and the results are expressed as the measurement made in the treated group (T) divided by the measurement made in the vehicle treated control group (C). The tumor model used in this assay is Sarcoma M5076 (intraperitoneal) in B6D2F1 (BDF1) mice

Where “and” joins values, the source holds several entries; their conditions need not be identical. Equal entries are not always repeated. Toxic doses and inconclusive results are not listed. Starred links: 1 amine or outer side, 2 acyl side, 3 side chain; linkers in the order of their positions; H or OH if unused. Positions of bridges follow the written chain, without caps; N, C: chain ends. Non-standard residues stand in square brackets, D forms with d. Residues, ends and D or L forms follow the SMILES beside them. Chains are numbered I, II in the order given. ξ: configuration not given here. *: point of attachment. Quinaldoyl(3-OH,6-OMe) = COc1ccc2nc(C(=O)*)c(O)cc2c1; X1 = CCC(=O)OC1CC=NN([*:1])C1C(=O)[*:2]; X2 = CC(=O)OC1CC=NN([*:1])C1C(=O)[*:2]; ξNMeVal(3-OH) = CNC(C(=O)O)C(C)(C)O; Sar = CNCC(=O)O

On to `CCN(CC)CCNc1ccc(C)c2sc3ccccc3c(=O)c12`, for which the T/C was 113 % of control (dose: 5.0 mg/kg/injection, schedule: Q04DX004 (ip), vehicle: water); 112 % of control (dose: 10.0 mg/kg/injection, schedule: Q04DX004 (ip), vehicle: water); 103 % of control (dose: 20.0 mg/kg/injection, schedule: Q04DX004 (ip), vehicle: water); 112 % of control (dose: 40.0 mg/kg/injection, schedule: Q04DX004 (ip), vehicle: water); 108 % of control (dose: 160.0 mg/kg/injection, schedule: Q04DX004 (ip), vehicle: water).

With `CN=C(N)c1ccc(N=C(N)c2ccc(C(N)=Nc3ccc(C(N)=NC)cc3)cc2)cc1`, the T/C by setting is: (dose: 1.3 mg/kg/injection, schedule: Q01DX005 (iv), vehicle: saline) 98 % of control; (dose: 1.3 mg/kg/injection, schedule: Q01DX005 (iv), vehicle: water) 100 % of control; (dose: 3.6 mg/kg/injection, schedule: Q01DX005 (iv), vehicle: saline) 104 % of control; (dose: 3.6 mg/kg/injection, schedule: Q01DX005 (iv), vehicle: water) 100 % of control; (dose: 3.75 mg/kg/injection, schedule: Q01DX005 (iv), vehicle: water) 99 % of control; (dose: 3.75 mg/kg/injection, schedule: Q01DX005 (sc), vehicle: water) 101 % of control. Moreover, the T/C was 104 % of control (dose: 6.0 mg/kg/injection, schedule: Q01DX005 (iv), vehicle: saline); 99 % of control (dose: 6.0 mg/kg/injection, schedule: Q01DX005 (iv), vehicle: water); 108 % of control (dose: 7.5 mg/kg/injection, schedule: Q01DX005 (iv), vehicle: water); 165 % of control (dose: 15.0 mg/kg/injection, schedule: Q01DX005 (ip), vehicle: water); 120 % of control (dose: 15.0 mg/kg/injection, schedule: Q01DX005 (sc), vehicle: water); 164 % of control (dose: 18.0 mg/kg/injection, schedule: Q01DX005 (ip), vehicle: saline). Moreover, the T/C (dose: 18.0 mg/kg/injection, schedule: Q01DX005 (ip), vehicle: water) was 164 % of control; the T/C (dose: 30.0 mg/kg/injection, schedule: Q01DX005 (ip), vehicle: saline) is 180 % of control; the T/C (dose: 30.0 mg/kg/injection, schedule: Q01DX005 (ip), vehicle: water) is 172 % of control.

For the molecule `CCC/C=C/C=C/C(=O)OC1/C(=C/C(=O)OC)CC2CC(C(C)O)OC(=O)CC(O)CC3CC(OC(C)=O)C(C)(C)C(O)(CC4C/C(=C/C(=O)OC)CC(/C=C/C(C)(C)C1(O)O2)O4)O3` (configuration not stated), the T/C (dose: 20.0 micrograms/kg/injection, schedule: Q01DX009 (ip), vehicle: saline + Tween-80 + alcohol) was 158 % of control; the T/C (dose: 40.0 micrograms/kg/injection, schedule: Q01DX009 (ip), vehicle: saline + Tween-80 + alcohol) was 168 % of control; the T/C (dose: 80.0 micrograms/kg/injection, schedule: Q01DX009 (ip), vehicle: saline + Tween-80 + alcohol) is 160 % of control.

In the case of `CCC1(O)CC2CN(CCc3c([nH]c4ccccc34)C(C(=O)OC)(c3cc4c(cc3OC)N(C)C3C(O)(C(N)=O)C(O)C5(CC)C=CCN6CCC43C65)C2)C1` (configuration not stated) (tested in a mixture with another compound), the T/C runs as follows: (dose: 0.5 mg/kg/injection, schedule: Q04DX005 (ip), vehicle: saline) 208 % of control; (dose: 1.0 mg/kg/injection, schedule: Q04DX005 (ip), vehicle: saline) 208 % of control.

In the case of `Cc1c(N)nc([C@H](CC(N)=O)NC[C@H](N)C(N)=O)nc1C(=O)N[C@H](C(=O)N[C@H](C)[C@@H](O)[C@H](C)C(=O)N[C@H](C(=O)NCCc1nc(-c2nc(C(=O)NCCC[S+](C)C)cs2)cs1)[C@@H](C)O)C(OC1OC(CO)C(O)C(O)C1OC1OC(CO)C(O)C(OC(N)=O)C1O)c1cnc[nH]1` (some centres not stated), the T/C runs as follows: (dose: 4.0 mg/kg/injection, schedule: Q04DX004 (ip), vehicle: saline) 113 % of control; (dose: 8.0 mg/kg/injection, schedule: Q04DX004 (ip), vehicle: saline) 101 % of control; (dose: 16.0 mg/kg/injection, schedule: Q04DX004 (ip), vehicle: saline) 117 % of control; (dose: 32.0 mg/kg/injection, schedule: Q04DX004 (ip), vehicle: saline) 116 % of control.

For `CCC(=O)OC1CC=NN2C(=O)C(NC(=O)c3nc4ccc(OC)cc4cc3O)COC(=O)C(C(C)(C)O)N(C)C(=O)CN(C)C(=O)CNC(=O)C3C(OC(C)=O)CC=NN3C(=O)C(NC(=O)c3nc4ccc(OC)cc4cc3O)COC(=O)C(C(C)(C)O)N(C)C(=O)CN(C)C(=O)CNC(=O)C12` (configuration not stated) (I: {Quinaldoyl(3-OH,6-OMe)}-S[X1]G[Sar][ξNMeVal(3-OH)] / II: {Quinaldoyl(3-OH,6-OMe)}-S[X2]G[Sar][ξNMeVal(3-OH)]; ester I:1-II:C, I:C-II:1; configuration not given here), the T/C runs as follows: (dose: 18.75 micrograms/kg/injection, schedule: Q01DX009 (ip), vehicle: DMSO) 117 % of control; (dose: 37.5 micrograms/kg/injection, schedule: Q01DX009 (ip), vehicle: DMSO) 165 % of control and 169 % of control; (dose: 75.0 micrograms/kg/injection, schedule: Q01DX009 (ip), vehicle: DMSO) 191 % of control and 160 % of control; (dose: 150.0 micrograms/kg/injection, schedule: Q01DX009 (ip), vehicle: DMSO) 165 % of control.

For the molecule `C=C1C(=O)OC2C(OC(C)=O)C1C(OC(=O)C(C)CC)[C@]1(C)C(=O)C=C[C@H]1[C@@H]2C` (some centres not stated), the T/C runs as follows: (dose: 1.25 mg/kg/injection, schedule: Q01DX009 (ip), vehicle: Klucel (hydroxypropylcellulose) (HPC)) 110 % of control; (dose: 2.5 mg/kg/injection, schedule: Q01DX009 (ip), vehicle: Klucel (hydroxypropylcellulose) (HPC)) 107 % of control; (dose: 5.0 mg/kg/injection, schedule: Q01DX009 (ip), vehicle: Klucel (hydroxypropylcellulose) (HPC)) 101 % of control; (dose: 10.0 mg/kg/injection, schedule: Q01DX009 (ip), vehicle: Klucel (hydroxypropylcellulose) (HPC)) 110 % of control.

On to `CN(C)c1nc(N(C)C)nc(N(C)C)n1`, for which the T/C by setting is: (dose: 40.0 mg/kg/injection, schedule: Q04DX005 (ip), vehicle: Klucel (hydroxypropylcellulose) (HPC)) 160 % of control; (dose: 80.0 mg/kg/injection, schedule: Q04DX005 (ip), vehicle: Klucel (hydroxypropylcellulose) (HPC)) 188 % of control; (dose: 100.0 mg/kg/injection, schedule: Q04DX005 (ip), vehicle: Klucel (hydroxypropylcellulose) (HPC)) 112 % of control; (dose: 160.0 mg/kg/injection, schedule: Q04DX005 (ip), vehicle: Klucel (hydroxypropylcellulose) (HPC)) 104 % of control; (dose: 200.0 mg/kg/injection, schedule: Q04DX005 (ip), vehicle: Klucel (hydroxypropylcellulose) (HPC)) 119 % of control; (dose: 400.0 mg/kg/injection, schedule: Q04DX005 (ip), vehicle: Klucel (hydroxypropylcellulose) (HPC)) 123 % of control.

For the molecule `CSC1SCC2C(=O)N(C)C(C(C)C)C(=O)OCC(NC(=O)c3cnc4ccccc4n3)C(=O)NC(C)C(=O)N(C)C1C(=O)N(C)C(C(C)C)C(=O)OCC(NC(=O)c1cnc3ccccc3n1)C(=O)NC(C)C(=O)N2C` (configuration not stated), the T/C runs as follows: (dose: 25.0 micrograms/kg/injection, schedule: Q01DX009 (ip), vehicle: saline with Tween-80) 157 % of control; (dose: 50.0 micrograms/kg/injection, schedule: Q01DX009 (ip), vehicle: saline with Tween-80) 177 % of control; (dose: 100.0 micrograms/kg/injection, schedule: Q01DX009 (ip), vehicle: saline with Tween-80) 201 % of control.

In the case of `O=NN(CCCl)C(=O)NC1CCCCC1`, the T/C is 256 % of control (dose: 6.0 mg/kg/injection, schedule: Q01DX005 (sc), vehicle: other) and 256 % of control (dose: 12.0 mg/kg/injection, schedule: Q01DX005 (sc), vehicle: other).

Turning to `C[C@@](O)(/C=C/[C@H]1CC=CC(=O)O1)[C@@H](C[C@@H](O)\C=C/C=C\C=C\CO)OP(=O)(O)O`, the T/C (dose: 1.0 mg/kg/injection, schedule: Q01DX009 (ip), vehicle: water) is 112 % of control; the T/C (dose: 2.0 mg/kg/injection, schedule: Q01DX009 (ip), vehicle: water) was 106 % of control; the T/C (dose: 4.0 mg/kg/injection, schedule: Q01DX009 (ip), vehicle: water) was 98 % of control; the T/C (dose: 8.0 mg/kg/injection, schedule: Q01DX009 (ip), vehicle: water) is 120 % of control.

Regarding `COc1cc2cc(c1Cl)N(C)C(=O)C[C@H](OC(=O)[C@H](C)N(C)C(C)=O)[C@]1(C)O[C@H]1[C@H](C)[C@@H]1C[C@@](O)(NC(=O)O1)[C@H](OC)C=C/C=C(\C)C2`, the T/C by setting is: (dose: 37.0 micrograms/kg/injection, schedule: Q04DX004 (ip), vehicle: saline) 117 % of control; (dose: 37.0 micrograms/kg/injection, schedule: Q04DX005 (ip), vehicle: saline) 113 % of control; (dose: 75.0 micrograms/kg/injection, schedule: Q04DX004 (ip), vehicle: saline) 112 % of control; (dose: 75.0 micrograms/kg/injection, schedule: Q04DX005 (ip), vehicle: saline) 123 % of control; (dose: 150.0 micrograms/kg/injection, schedule: Q04DX004 (ip), vehicle: saline) 119 % of control.

(Values after PubChem BioAssay AID286 (DTP/NCI, 2004).)
